From patent US7662832B2, “Pyrrolo[2,3-c]pyridine derivatives and processes for the preparation thereof” (priority 2004, dated 2010)
Structures can show the parent of a compound that is named as a salt.

molecular target: Proton Pump (H^+/K^+-ATPase) (Sus scrofa, UniProt P19156); experiment: Inhibitory effects on proton pump (H^+/K^+-ATPase) activity; format: biochemical; settings: hog gastric vesicles; K^+ stimulated H^+/K^+-ATPase activity; 30 minutes at 37° C.
Sequence (P19156 2-1034 limits assumed): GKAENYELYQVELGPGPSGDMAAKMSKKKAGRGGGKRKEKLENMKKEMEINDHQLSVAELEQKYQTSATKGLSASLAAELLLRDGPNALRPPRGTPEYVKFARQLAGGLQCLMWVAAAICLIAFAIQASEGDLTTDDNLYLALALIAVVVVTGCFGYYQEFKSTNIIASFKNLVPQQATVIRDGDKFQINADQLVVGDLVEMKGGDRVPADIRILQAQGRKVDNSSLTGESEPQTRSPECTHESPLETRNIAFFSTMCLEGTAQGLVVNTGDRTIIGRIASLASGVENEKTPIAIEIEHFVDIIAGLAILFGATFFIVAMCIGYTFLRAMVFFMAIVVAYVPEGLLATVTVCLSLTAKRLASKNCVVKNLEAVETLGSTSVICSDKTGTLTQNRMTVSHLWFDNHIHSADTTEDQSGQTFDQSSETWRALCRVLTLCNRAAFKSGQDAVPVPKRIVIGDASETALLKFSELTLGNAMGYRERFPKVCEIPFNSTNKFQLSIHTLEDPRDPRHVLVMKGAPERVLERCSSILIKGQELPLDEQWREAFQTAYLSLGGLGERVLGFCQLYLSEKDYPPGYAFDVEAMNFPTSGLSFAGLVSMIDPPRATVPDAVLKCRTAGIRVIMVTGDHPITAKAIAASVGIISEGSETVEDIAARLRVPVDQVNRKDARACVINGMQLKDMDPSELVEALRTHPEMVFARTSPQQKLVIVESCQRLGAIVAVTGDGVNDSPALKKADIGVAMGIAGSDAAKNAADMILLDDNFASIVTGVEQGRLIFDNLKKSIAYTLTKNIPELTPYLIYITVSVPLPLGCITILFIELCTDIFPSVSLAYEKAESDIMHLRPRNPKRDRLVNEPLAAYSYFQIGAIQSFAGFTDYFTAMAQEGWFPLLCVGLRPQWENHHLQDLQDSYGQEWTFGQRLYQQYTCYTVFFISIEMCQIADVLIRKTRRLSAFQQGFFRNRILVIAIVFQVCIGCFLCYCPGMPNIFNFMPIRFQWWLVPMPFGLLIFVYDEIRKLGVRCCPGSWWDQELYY
Sequence (P18434 whole entry partner): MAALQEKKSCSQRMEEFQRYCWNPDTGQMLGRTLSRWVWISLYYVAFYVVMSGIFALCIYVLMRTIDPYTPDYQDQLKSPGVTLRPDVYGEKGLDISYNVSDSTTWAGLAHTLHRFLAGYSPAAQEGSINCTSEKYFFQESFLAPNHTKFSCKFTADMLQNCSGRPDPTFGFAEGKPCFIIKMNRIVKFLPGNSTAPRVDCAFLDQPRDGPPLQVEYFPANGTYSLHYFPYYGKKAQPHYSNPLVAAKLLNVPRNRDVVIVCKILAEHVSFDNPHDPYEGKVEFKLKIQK

**Q.** `Cc1c(C)n(CC2CCC2)c2c(N3CCc4ccccc4C3)nc(C(=O)N3CCN(C)CC3)cc12` [Example 830, [1-cyclobutylmethyl-7-(3,4-dihydro-1H-isoquinolin-2-yl)-2,3-dimethyl-1H-pyrrolo[2,3-c]pyridin-5-yl]-(4-methylpiperazin-1-yl)-methanone hydrochloride] was tested. Which IC50 did it give?
**A.** The IC50 was 0.044 µM.

**Q.** How did the IC50 turn out when `Cc1c(C)n(Cc2ccc(F)cc2)c2c(N3CCc4ccccc4C3)nc(C(=O)N3CCN(C)CC3)cc12` [Example 831, [7-(3,4-dihydro-1H-isoquinolin-2-yl)-1-(4-fluorobenzyl)-2,3-dimethyl-1H-pyrrolo[2,3-c]pyridin-5-yl]-(4-methylpiperazin-1-yl)-methanone hydrochloride] was run?
**A.** Its IC50 is 0.039 µM.

**Q.** With `Cc1c(C)n(Cc2cccc(F)c2)c2c(N3CCc4ccccc4C3)nc(C(=O)N3CCN(C)CC3)cc12` [Example 832, [7-(3,4-dihydro-1H-isoquinolin-2-yl)-1-(3-fluorobenzyl)-2,3-dimethyl-1H-pyrrolo[2,3-c]pyridin-5-yl]-(4-methylpiperazin-1-yl)-methanone hydrochloride] as the molecule, how does the IC50 read?
**A.** Its IC50 is 0.031 µM.

**Q.** With `Cc1c(C)n(CC(C)C)c2c(N3CCc4ccccc4C3)nc(C(=O)N3CCN(C)CC3)cc12` [Example 833, [7-(3,4-dihydro-1H-isoquinolin-2-yl)-1-isobutyl-2,3-dimethyl-1H-pyrrolo[2,3-c]pyridin-5-yl]-(4-methylpiperazin-1-yl)-methanone hydrochloride] as the molecule, how does the IC50 read?
**A.** The IC50 was 0.043 µM.

**Q.** With `CC(C)=CCn1c(C)c(C)c2cc(C(=O)N3CCN(C)CC3)nc(N3CCc4ccccc4C3)c21` [Example 834, [7-(3,4-dihydro-1H-isoquinolin-2-yl)-2,3-dimethyl-1-(3-methylbut-2-enyl)-1H-pyrrolo[2,3-c]pyridin-5-yl]-(4-methylpiperazin-1-yl)-methanone hydrochloride] as the molecule, how does the IC50 read?
**A.** Its IC50 is 0.037 µM.

**Q.** For `Cc1c(C)n(Cc2ccc(C(C)(C)C)cc2)c2c(N3CCc4ccccc4C3)nc(C(=O)N3CCN(C)CC3)cc12` [Example 835, [1-(4-tert-butylbenzyl)-7-(3,4-dihydro-1H-isoquinolin-2-yl)-2,3-dimethyl-1H-pyrrolo[2,3-c]pyridin-5-yl]-(4-methylpiperazin-1-yl)-methanone hydrochloride], which IC50 is on record?
**A.** Its IC50 is 0.134 µM.

**Q.** With `Cc1c(C)n(Cc2cccc(Cl)c2)c2c(N3CCc4ccccc4C3)nc(C(=O)N3CCN(C)CC3)cc12` [Example 836, [1-(3-chlorobenzyl)-7-(3,4-dihydro-1H-isoquinolin-2-yl)-2,3-dimethyl-1H-pyrrolo[2,3-c]pyridin-5-yl]-(4-methylpiperazin-1-yl)-methanone hydrochloride] as the molecule, how does the IC50 read?
**A.** Its IC50 is 0.129 µM.

**Q.** Which IC50 does the source give for `C=CCn1c(C)c(C)c2cc(C(=O)NCCO)nc(N3CCc4ccccc4C3)c21` [Example 837, 1-allyl-7-(3,4-dihydro-1H-isoquinolin-2-yl)-2,3-dimethyl-N-(2-hydroxyethyl)-1H-pyrrolo[2,3-c]pyridin-5-carboxamide hydrochloride] here?
**A.** The IC50 was 0.029 µM.

**Q.** For `Cc1c(C)n(Cc2ccccc2)c2c(N3CCc4ccccc4C3)nc(C(=O)n3ccnc3)cc12` [Example 839, [1-benzyl-7-(3,4-dihydro-1H-isoquinolin-2-yl)-2,3-dimethyl-1H-pyrrolo[2,3-c]pyridin-5-yl]-(imidazol-1-yl)-methanone hydrochloride], which IC50 is on record?
**A.** The IC50 was 0.257 µM.

**Q.** How did the IC50 turn out when `Cc1c(C)n(Cc2cccc(F)c2)c2c(N3CCc4ccccc4C3)nc(C(=O)n3ccnc3)cc12` [Example 840, [7-(3,4-dihydro-1H-isoquinolin-2-yl)-1-(3-fluorobenzyl)-2,3-dimethyl-1H-pyrrolo[2,3-c]pyridin-5-yl]-(imidazol-1-yl)-methanone hydrochloride] was run?
**A.** The IC50 was 0.169 µM.

**Q.** `COc1cccc(Cn2c(C)c(C)c3cc(C(=O)n4ccnc4)nc(N4CCc5ccccc5C4)c32)c1` [Example 841, [7-(3,4-dihydro-1H-isoquinolin-2-yl)-1-(3-methoxybenzyl)-2,3-dimethyl-1H-pyrrolo[2,3-c]pyridin-5-yl]-(imidazol-1-yl)-methanone hydrochloride] was tested. Which IC50 did it give?
**A.** The IC50 was 0.242 µM.

**Q.** For `COCCn1c(C)c(C)c2cc(C(=O)n3ccnc3)nc(N3CCc4ccccc4C3)c21` [Example 842, [7-(3,4-dihydro-1H-isoquinolin-2-yl)-1-(2-methoxyethyl)-2,3-dimethyl-1H-pyrrolo[2,3-c]pyridin-5-yl]-(imidazol-1-yl)-methanone hydrochloride], which IC50 is on record?
**A.** The IC50 was 0.48 µM.

**Q.** How did the IC50 turn out when `Cc1c(C)n(Cc2cccc(Cl)c2)c2c(N3CCc4ccccc4C3)nc(N)cc12` [Example 845, 1-(3-chlorobenzyl)-7-(3,4-dihydro-1H-isoquinolin-2-yl)-2,3-dimethyl-1H-pyrrolo[2,3-c]pyridin-5-amine hydrochloride] was run?
**A.** The IC50 was 0.287 µM.

**Q.** For `C=CCn1c(C)c(C)c2cc(N)nc(N3CCc4ccccc4C3)c21` [Example 846, 1-allyl-7-(3,4-dihydro-1H-isoquinolin-2-yl)-2,3-dimethyl-1H-pyrrolo[2,3-c]pyridin-5-amine hydrochloride], which IC50 is on record?
**A.** The IC50 was 0.139 µM.

**Q.** `Cc1c(C)n(Cc2cccc(F)c2)c2c(N3CCc4ccccc4C3)nc(N)cc12` [Example 847, 7-(3,4-dihydro-1H-isoquinolin-2-yl)-1-(3-fluorobenzyl)-2,3-dimethyl-1H-pyrrolo[2,3-c]pyridin-5-amine hydrochloride] was tested. Which IC50 did it give?
**A.** Its IC50 is 0.062 µM.

**Q.** With `COc1cccc(Cn2c(C)c(C)c3cc(N)nc(N4CCc5ccccc5C4)c32)c1` [Example 848, 7-(3,4-dihydro-1H-isoquinolin-2-yl)-1-(3-methoxybenzyl)-2,3-dimethyl-1H-pyrrolo[2,3-c]pyridin-5-amine hydrochloride] as the molecule, how does the IC50 read?
**A.** Its IC50 is 0.029 µM.

**Q.** Which IC50 does the source give for `CCn1c(C)c(C)c2cc(N)nc(N3CCc4ccccc4C3)c21` [Example 849, 7-(3,4-dihydro-1H-isoquinolin-2-yl)-1-ethyl-2,3-dimethyl-1H-pyrrolo[2,3-c]pyridin-5-amine hydrochloride] here?
**A.** Its IC50 is 0.129 µM.

**Q.** For `Cc1c(C)n(Cc2ccccc2)c2c(N3CCc4ccccc4C3)nc(CO)cc12` [Example 850, [1-benzyl-7-(3,4-dihydro-1H-isoquinolin-2-yl)-2,3-dimethyl-1H-pyrrolo[2,3-c]pyridin-5-yl]-methanol hydrochloride], which IC50 is on record?
**A.** Its IC50 is 0.053 µM.

**Q.** Which IC50 does the source give for `Cc1c(C)n(Cc2cccc(F)c2)c2c(N3CCc4ccccc4C3)nc(CO)cc12` [Example 851, 7-(3,4-dihydro-1H-isoquinolin-2-yl)-1-(3-fluorobenzyl)-2,3-dimethyl-1H-pyrrolo[2,3-c]pyridin-5-yl]-methanol hydrochloride] here?
**A.** Its IC50 is 0.032 µM.

**Q.** With `Cc1c(C)n(Cc2cccc(Cl)c2)c2c(N3CCc4ccccc4C3)nc(-c3nnn[nH]3)cc12` [Example 852, 2-[1-(3-chlorobenzyl)-2,3-dimethyl-5-(1H-tetrazol-5-yl)-1H-pyrrolo[2,3-c]pyridin-7-yl]-1,2,3,4-tetrahydroisoquinoline] as the molecule, how does the IC50 read?
**A.** The IC50 was 0.427 µM.

**Q.** For `Cc1c(C)n(Cc2cccc(Cl)c2)c2c(N3CCc4ccccc4C3)nc(-c3nnnn3C)cc12` [Example 853, 2-[1-(3-chlorobenzyl)-2,3-dimethyl-5-(1-methyl-1H-tetrazol-5-yl)-1H-pyrrolo[2,3-c]pyridin-7-yl]-1,2,3,4-tetrahydroisoquinoline], which IC50 is on record?
**A.** Its IC50 is 0.036 µM.

**Q.** With `CCn1nnnc1-c1cc2c(C)c(C)n(Cc3cccc(Cl)c3)c2c(N2CCc3ccccc3C2)n1` [Example 854, 2-[1-(3-chlorobenzyl)-2,3-dimethyl-5-(1-ethyl-1H-tetrazol-5-yl)-1H-pyrrolo[2,3-c]pyridin-7-yl]-1,2,3,4-tetrahydroisoquinoline] as the molecule, how does the IC50 read?
**A.** Its IC50 is 0.282 µM.

**Q.** Which IC50 does the source give for `Cc1c(C)n(Cc2cccc(F)c2)c2c(N3CCc4ccccc4C3)nc(C(C)O)cc12` (stereo not shown) [Example 860, 1-[7-(3,4-dihydro-1H-isoquinolin-2-yl)-1-(3-fluorobenzyl)-2,3-dimethyl-1H-pyrrolo[2,3-c]pyridin-5-yl]-ethanol hydrochloride] here?
**A.** Its IC50 is 0.313 µM.

**Q.** How did the IC50 turn out when `Cc1[nH]c2c(N3CCc4ccccc4C3)nc(C=O)cc2c1C` [Example 862, 7-(3,4-dihydro-1H-isoquinolin-2-yl)-2,3-dimethyl-1H-pyrrolo[2,3-c]pyridin-5-carbaldehyde] was run?
**A.** Its IC50 is 0.403 µM.

**Q.** For `Cc1c(C)n(Cc2cccc(Cl)c2)c2c(N3CCc4ccccc4C3)nc(C=O)cc12` [Example 863, 1-(3-chlorobenzyl)-7-(3,4-dihydro-1H-isoquinolin-2-yl)-2,3-dimethyl-1H-pyrrolo[2,3-c]pyridin-5-carbaldehyde], which IC50 is on record?
**A.** Its IC50 is 0.109 µM.

**Q.** How did the IC50 turn out when `Cc1c(C)n(Cc2cccc(F)c2)c2c(N3CCc4ccccc4C3)nc(C=O)cc12` [Example 864, 7-(3,4-dihydro-1H-isoquinolin-2-yl)-1-(3-fluorobenzyl)-2,3-dimethyl-1H-pyrrolo[2,3-c]pyridin-5-carbaldehyde hydrochloride] was run?
**A.** Its IC50 is 0.213 µM.

**Q.** Which IC50 does the source give for `Cc1c(C)n(Cc2cccc(F)c2)c2c(N3CCc4ccccc4C3)nc(CNc3ccc(F)cc3)cc12` [Example 866, N-[7-(3,4-dihydro-1H-isoquinolin-2-yl)-1-(3-fluorobenzyl)-2,3-dimethyl-1H-pyrrolo[2,3-c]pyridin-5-ylmethyl]-4-fluorophenylamine hydrochloride] here?
**A.** The IC50 was 1.03 µM.

**Q.** `Cc1ccc(CNCc2cc3c(C)c(C)n(Cc4cccc(F)c4)c3c(N3CCc4ccccc4C3)n2)cc1` [Example 867, N-[7-(3,4-dihydro-1H-isoquinolin-2-yl)-1-(3-fluorobenzyl)-2,3-dimethyl-1H-pyrrolo[2,3-c]pyridin-5-ylmethyl]-4-methylbenzylamine hydrochloride] was tested. Which IC50 did it give?
**A.** Its IC50 is 0.412 µM.

**Q.** With `CCNCc1cc2c(C)c(C)n(Cc3cccc(F)c3)c2c(N2CCc3ccccc3C2)n1` [Example 868, N-[7-(3,4-dihydro-1H-isoquinolin-2-yl)-1-(3-fluorobenzyl)-2,3-dimethyl-1H-pyrrolo[2,3-c]pyridin-5-ylmethyl]-ethylamine hydrochloride] as the molecule, how does the IC50 read?
**A.** Its IC50 is 0.039 µM.

**Q.** For `Cc1c(C)n(Cc2cccc(F)c2)c2c(N3CCc4ccccc4C3)nc(CNC(C)(C)C)cc12` [Example 869, N-[7-(3,4-dihydro-1H-isoquinolin-2-yl)-1-(3-fluorobenzyl)-2,3-dimethyl-1H-pyrrolo[2,3-c]pyridin-5-ylmethyl]-tert-butylamine hydrochloride], which IC50 is on record?
**A.** Its IC50 is 0.04 µM.

**Q.** For `Cc1c(C)n(Cc2cccc(F)c2)c2c(N3CCc4ccccc4C3)nc(CNC3CCC3)cc12` [Example 870, N-[7-(3,4-dihydro-1H-isoquinolin-2-yl)-1-(3-fluorobenzyl)-2,3-dimethyl-1H-pyrrolo[2,3-c]pyridin-5-ylmethyl]-cyclobutylamine hydrochloride], which IC50 is on record?
**A.** Its IC50 is 0.043 µM.
